“And” between values parts separate entries of the source, which are not always exact repeats. Equal entries are not always repeated.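 Assay format: 96-well plates, 48-hour exposure. Abbreviation: GI50, concentration required for 50% inhibition of growth. At the TGI there is no net growth.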

Some test systems named below: SNB-78 CNS; LXFL 529 NSCLC; RXF-631 renal; HOP-18 NSCLC; KM20L2 colon; XF 498 CNS; BT-549 breast; MCF7 breast; MDA-N.
Holding throughout (experiment): growth of human tumour cells (NCI), 48 h

Regarding `Cc1ccc(C)c2sc3cc(=O)ccc-3nc12`, the TGI in the experiment on SNB-78 CNS, in the experiment with LXFL 529 NSCLC, in the experiment with RXF-631 renal, in the experiment with HOP-18 NSCLC and in the experiment with KM20L2 colon was greater than 100 µM in each case.

As for `CC12CC(=O)NN=C1c1ccccc1C2` (centres undefined), the TGI with SNB-78 CNS, in the experiment on XF 498 CNS and in the experiment on KM20L2 colon was greater than 100 µM in each case.

Regarding `O=C1CCCC2COc3ccc(O)c1c32` (centres undefined), the TGI in the experiment on SNB-78 CNS, in the experiment on RXF-631 renal and in the experiment with KM20L2 colon was greater than 100 µM each time.

As for `CCc1ccc(/C=C2/SC(=S)NC2=O)cc1`, in the experiment with BT-549 breast, the GI50 was 20.9 µM and the TGI amounted to 58.2 µM. Further, in the experiment on MCF7 breast, the GI50 was 21.2 µM and the TGI was greater than 85.5 µM.

As to `O=C(O)CCN1C(=O)/C(=C/C(Cl)=C/c2ccccc2)SC1=S`, in the experiment with BT-549 breast, the GI50 was 2.14 µM and the TGI was determined as 6.27 µM. Moreover, in the experiment on MCF7 breast, the GI50 is 1.98 µM and the TGI stood at 13.1 µM.

Consider `O=C(O)c1c(Cl)c(Cl)c(Cl)c(Cl)c1-c1c2cc(I)c(=O)c(I)c-2oc2c(I)c(O)c(I)cc12`, for which, in the experiment with BT-549 breast, the GI50 was 26.9 µM and 35.9 µM; the TGI was 82.6 µM and 83.2 µM. In the experiment on MCF7 breast, the GI50 is 83.5 µM and the TGI was greater than 200 µM.

Take `CC(C)S(=O)(=O)n1c(N)nc2ccc(/C(=N/O)c3ccccc3)cc21`: the results for the TGI in the experiment on SNB-78 CNS, in the experiment on LXFL 529 NSCLC and with KM20L2 colon were greater than 100 µM, greater than 100 µM and 31.8 µM, respectively.

Turning to `O=C(O)C(O)C(O)C1[O][Sb][O]C1CO` (centres undefined), the GI50 is greater than 81.3 µM in the experiment on SNB-78 CNS; greater than 89.2 µM in the experiment with LXFL 529 NSCLC; greater than 100 µM in the experiment with BT-549 breast; greater than 100 µM in the experiment on XF 498 CNS; greater than 100 µM with HOP-18 NSCLC; greater than 100 µM in the experiment on MDA-N. The GI50 with KM20L2 colon was greater than 100 µM. Further, the TGI with SNB-78 CNS, with LXFL 529 NSCLC, in the experiment on BT-549 breast, in the experiment on XF 498 CNS, in the experiment on HOP-18 NSCLC and in the experiment on MDA-N was greater than 100 µM in each case. The compound also showed a TGI with KM20L2 colon greater than 100 µM.

As to `NC(=O)Cn1c(=O)[nH]c(=O)c2[nH]cnc21`, the TGI with LXFL 529 NSCLC, in the experiment with HOP-18 NSCLC and with KM20L2 colon was greater than 100 µM each time.

Turning to `CCOc1ccc(N2C(N)=NC(N)=NC2(C)C)cc1`, in the experiment on BT-549 breast, the GI50 is 84.3 µM and the TGI was greater than 100 µM. For the same compound, in the experiment on MCF7 breast, the GI50 was greater than 100 µM and the TGI was greater than 100 µM.

Consider `CCCCCCCCSC(SCCCCCCCC)=C1C(=O)N(c2ccccc2)N=C1C`, for which the TGI in the experiment on SNB-78 CNS, with LXFL 529 NSCLC, with RXF-631 renal, with HOP-18 NSCLC and in the experiment with KM20L2 colon was greater than 100 µM in each case.

`CC(=O)OCC1OC(O[C@@H]2C[C@H]3C(C)(C)[C@H](OC(C)=O)CC[C@]3(C)[C@H]3CC[C@@H]4[C@]5(CC[C@@]4(C)[C@@]32C)O[C@@H]([C@H](O)C(C)(C)O)C[C@@H]5C)C(O)C(O)C1O` (some centres undefined): the GI50 in the experiment with BT-549 breast is 12.1 µM; in the experiment on MCF7 breast, 1.06 µM; with MDA-N it was 7.08 µM. In addition, the TGI in the experiment on BT-549 breast came to 24.5 µM; in the experiment on MCF7 breast it was 6.03 µM; in the experiment on MDA-N it was 20.1 µM.

Take `C=C(C)[C@@H]1CC[C@]2(C#N)CC[C@]3(C)[C@H](CC[C@@H]4[C@@]5(C)CCCNC(C)(C)[C@@H]5CC[C@]43C)[C@@H]12`: in the experiment on BT-549 breast, the GI50 is 1.75 µM and the TGI amounted to 3.42 µM. Further, in the experiment with MCF7 breast, the GI50 is 1.53 µM and the TGI turned out to be 2.91 µM.

`Cc1nc(Nc2ccc([N+](=O)[O-])cc2)sc1C(=O)/C=C/c1ccc(N(C)C)cc1`: the TGI in the experiment on RXF-631 renal, in the experiment with HOP-18 NSCLC and with KM20L2 colon was greater than 100 µM each time.

As for `O=C1CCC(c2ccccc2)(c2ccccc2)CC1`, the TGI in the experiment with BT-549 breast, in the experiment with MCF7 breast and with MDA-N was greater than 100 µM throughout.

As for `CCn1c(-c2cc3ccccc3cc2OC(=O)c2ccccc2)n[nH]c1=S`, in the experiment on BT-549 breast, the GI50 was 34 µM and the TGI is greater than 50 µM. Moreover, in the experiment on MCF7 breast, the GI50 was greater than 50 µM and the TGI is greater than 50 µM.

For `C[Si](C)(C)[C@@]1([Se]c2ccccc2)CC[C@@H]1C(=O)c1ccccc1`, the TGI in the experiment on SNB-78 CNS, in the experiment on LXFL 529 NSCLC, in the experiment on RXF-631 renal and in the experiment on KM20L2 colon was greater than 100 µM each time.

On to `COc1cc(C(=O)c2c(-c3ccccc3)oc3ccccc23)cc(OC)c1O`, for which, in the experiment with BT-549 breast, the GI50 was 1.39 µM and the TGI worked out at 7.82 µM. Further, in the experiment with MCF7 breast, the GI50 was 0.399 µM and the TGI came to 16 µM.

Regarding `O=C(Nc1ccc(-c2nc3ccc(NC(=O)c4ccc(Cl)cc4)cc3[nH]2)cc1)c1ccc(Cl)cc1`, in the experiment on BT-549 breast, the GI50 was 6.56 µM and the TGI was 20.7 µM. Also, in the experiment with MCF7 breast, the GI50 is 1.23 µM and the TGI is 4.91 µM.

In the case of `NC(=NC1C2CC3CC(C2)CC1C3)Nc1ccc(I)cc1` (centres undefined), in the experiment with BT-549 breast, the GI50 is 3.33 µM and the TGI worked out at 12.8 µM. Besides, in the experiment with MCF7 breast, the GI50 was 2.45 µM and the TGI turned out to be 10.7 µM.

Take `CC1=CC(=O)c2[nH]c3ccccc3c2C1=O`: the values for the GI50 in the experiment on LXFL 529 NSCLC, in the experiment on XF 498 CNS and in the experiment on HOP-18 NSCLC were 4.22 µM, 4.38 µM and 3.35 µM, respectively. The TGI in the experiment on LXFL 529 NSCLC was 7.63 µM; in the experiment on XF 498 CNS, 7.99 µM; in the experiment with HOP-18 NSCLC it was 7.5 µM; in the experiment on KM20L2 colon, greater than 25 µM.

Consider `COc1cc([N+](=O)[O-])c2ncccc2c1O`, for which, in the experiment on BT-549 breast, the GI50 was 21.2 µM and the TGI was determined as 87.3 µM. In the experiment on MCF7 breast, the GI50 was 2.96 µM and the TGI was greater than 100 µM.

Turning to `O=C1C=Cc2noc3cccc1c23`, the TGI in the experiment on SNB-78 CNS amounted to 12 µM; in the experiment with LXFL 529 NSCLC, 4.9 µM; with RXF-631 renal, 27.9 µM; in the experiment on HOP-18 NSCLC, 33.6 µM; with KM20L2 colon it was 34 µM.

These data come from PubChem BioAssay (NCI).
